Reference: patent publication US20170115269A1, “ACYLCARNITINE COMPOSITION” (SEKISUI MEDICAL CO., LTD., priority 2014, published 2017)

Test: Storage stability of acylcarnitine-stable isotopes in methanol solution at room temperature (Reference Example 1, LC-MS/MS residual rate)
Type: physicochemical
Protocol: Acylcarnitine solutions were acquired by dissolving acylcarnitine-stable isotopes into methanol to concentrations listed in Table 3. The acylcarnitine-stable isotopes were measured under the following conditions. The acylcarnitine solutions were measured immediately before storage (prepared at the time of use) and after storage for predetermined periods, and the residual rate (%) was calculated from the acquired peak area ratio using Equation 2 described below.
System: LC-20A series (manufactured by Shimadzu Corporation) and 4000 QTRAP (manufactured by AB Sciex) […]
Mobile phase: mobile phase A, 0.5% (v/v) formic acid aqueous solution mobile phase B, 500 mmol/L ammonium formate aqueous solution: 500 mmol/L ammonium hydroxide (9:1)/methanol=1/9
Analysis time: 70 minutes
LC column: Scherzo SS-C18, 3 μm, 3.0×150 mm (manufactured by Imtact Corporation) Column temperature: 50° C.
Sample injection amount: 5 μL
Ionization mode: ESI (electrospray ionization)
Ion source: Turbo IonSpray
Q1/Q3 is described in Table 3.

[1] = storage period 2 M (two months)

Row | SMILES | Res. Rt (Residual Rate) (storage period 1 M (one month)) [%] | Res. Rt (Residual Rate) [1] [%]
1 | [2H]C([2H])([2H])[N+](C)(C)CC(CC(=O)[O-])OC(=O)CC(C)(C)O (stereo not shown) [^2H3-(3-Hydroxyisovaleryl)-carnitine] | 99.9 | 97.9
2 | [2H]C([2H])([2H])[N+](C)(C)CC(CC(=O)[O-])OC(=O)CCC (stereo not shown) [^2H3-Butyrylcarnitine] | 101.7 | 63.8
3 | [2H]C([2H])([2H])[N+](C)(C)CC(CC(=O)[O-])OC(=O)CCCCCCCCCCC (stereo not shown) [^2H3-Dodecanoylcarnitine] | 103.1 | 84.9
4 | [2H]C([2H])([2H])[N+](C)(C)CC(CC(=O)[O-])OC(=O)CCCC(=O)O (stereo not shown) [^2H3-Glutarylcarnitine] | 99.3 | 63.3
5 | [2H]C([2H])([2H])[N+](C)(C)CC(CC(=O)[O-])OC(=O)CCCCCCCCCCCCCCCCC (stereo not shown) [^2H3-Octadecanoylcarnitine] | 103.7 | 69.6
6 | [2H]C([2H])([2H])[N+](C)(C)CC(CC(=O)[O-])OC(=O)CCCCCCC (stereo not shown) [^2H3-Octanoylcarnitine] | 103.3 | 70.3
7 | [2H]C([2H])([2H])[N+](C)(C)CC(CC(=O)[O-])OC(=O)CCCCCCCCCCCCCCC (stereo not shown) [^2H3-Palmitoylcarnitine] | 101.2 | 62.6
8 | [2H]C([2H])([2H])[N+](C)(C)CC(CC(=O)[O-])OC(=O)CC (stereo not shown) [^2H3-Propionylcarnitine] | 97.4 | 38.5
9 | [2H]C([2H])([2H])[N+](C[C@H](O)CC(=O)[O-])(C([2H])([2H])[2H])C([2H])([2H])[2H] [^2H9-Carnitine] | 100.9 | 100.2
10 | [2H]C([2H])([2H])[N+](CC(CC(=O)[O-])OC(=O)CC(C)C)(C([2H])([2H])[2H])C([2H])([2H])[2H] (stereo not shown) [^2H9-Isovalerylcarnitine] | 100.3 | 99.4
11 | [2H]C([2H])([2H])[N+](CC(CC(=O)[O-])OC(=O)CCCCCCCCCCCCC)(C([2H])([2H])[2H])C([2H])([2H])[2H] (stereo not shown) [^2H9-Myristoylcarnitine] | 103.9 | 67.8
